According to ChEMBL document CHEMBL1145050, “Discovery of (3S)-amino-(4R)-ethylpiperidinyl quinolones as potent antibacterial agents with a broad spectrum of activity and activity against resistant pathogens” (J Med Chem, 2003):
Converted amounts (≈) assume the structure as drawn.

Key:
Pseudomonas aeruginosa = test: Minimum inhibitory concentration against Pseudomonas aeruginosa, strain PS96; type: functional
Staphylococcus aureus [1] = test: Minimum inhibitory concentration against Staphylococcus aureus - methicillin resistant Ciprofloxacin resistant, strain MI339; type: functional
Streptococcus pneumoniae [2] = test: Minimum inhibitory concentration against Streptococcus pneumoniae - penicillin resistant, strain STP51; type: functional
Staphylococcus aureus [3] = test: Minimum inhibitory concentration against Staphylococcus aureus - methicillin resistant Ciprofloxacin sensitive strain MI300; type: functional
Escherichia coli = test: Minimum inhibitory concentration against Escherichia coli, strain ES142; type: functional
Streptococcus pneumoniae [4] = test: Minimum inhibitory concentration against Streptococcus pneumoniae - penicillin sensitive, strain STP64; type: functional
Staphylococcus aureus [5] = test: Minimum inhibitory concentration against Staphylococcus aureus (Methicillin resistant Ciprofloxacin resistant) strain MI339; type: functional
Streptococcus pneumoniae [6] = test: Minimum inhibitory concentration against Streptococcus pneumoniae (Penicillin resistant) strain STP51; type: functional
Staphylococcus aureus [7] = test: Minimum inhibitory concentration against Staphylococcus aureus (Methicillin resistant Ciprofloxacin sensitive) strain MI300; type: functional
Streptococcus pneumoniae [8] = test: Minimum inhibitory concentration against Streptococcus pneumoniae (Penicillin sensitive) strain STP64; type: functional
DNA gyrase [9] = target: T1, DNA gyrase (Escherichia coli, UniProt P0AES4+P0AES6); test: Inhibition of Wild Type DNA gyrase Supercoiling Activity in Escherichia coli; type: protein-complex assay
DNA gyrase [10] = target: T1, DNA gyrase; test: Inhibition of Quinolone resistant gyrase Supercoiling Activity in Escherichia coli; type: protein-complex assay

## CC[C@@H]1CCN(c2cc3c(cc2F)c(=O)c(C(=O)O)cn3C2CC2)C[C@H]1N
Pseudomonas aeruginosa
  MIC: 1.5 µg/mL (≈ 4.02 µM)
Staphylococcus aureus [1]
  MIC: > 3 µg/mL
Streptococcus pneumoniae [2]
  MIC: 0.375 µg/mL (≈ 1 µM)
Staphylococcus aureus [3]
  MIC: 0.094 µg/mL (≈ 0.252 µM)
Escherichia coli
  MIC: 0.012 µg/mL (≈ 0.0321 µM)
Streptococcus pneumoniae [4]
  MIC: 0.75 µg/mL (≈ 2.01 µM)

## CC[C@H]1CCN(c2ccc3c(=O)c(C(=O)O)cn(C4CC4)c3c2OC)C[C@H]1N
Pseudomonas aeruginosa
  MIC: 4 µg/mL (≈ 10.4 µM)
Staphylococcus aureus [1]
  MIC: 4 µg/mL (≈ 10.4 µM)
Streptococcus pneumoniae [2]
  MIC: 0.5 µg/mL (≈ 1.3 µM)
Staphylococcus aureus [3]
  MIC: 0.25 µg/mL (≈ 0.649 µM)
Escherichia coli
  MIC: 0.125 µg/mL (≈ 0.324 µM)
Streptococcus pneumoniae [4]
  MIC: 1 µg/mL (≈ 2.59 µM)

## N[C@H]1CCCN(c2c(F)cc3c(=O)c(C(=O)O)cn(C4CC4)c3c2F)C1
Pseudomonas aeruginosa
  MIC: 0.5 µg/mL (≈ 1.38 µM)
Staphylococcus aureus [5]
  MIC: 4 µg/mL (≈ 11 µM)
Streptococcus pneumoniae [6]
  MIC: 0.13 µg/mL (≈ 0.358 µM)
Escherichia coli
  MIC: 0.03 µg/mL (≈ 0.0826 µM)
Staphylococcus aureus [7]
  MIC: 0.13 µg/mL (≈ 0.358 µM)
Streptococcus pneumoniae [8]
  MIC: 0.06 µg/mL (≈ 0.165 µM)

## COc1c(N2CCC[C@H](N)C2)c(F)cc2c(=O)c(C(=O)O)cn(C3CC3)c12
Pseudomonas aeruginosa
  MIC: 1 µg/mL (≈ 2.66 µM)
Staphylococcus aureus [1]
  MIC: 0.5 µg/mL (≈ 1.33 µM)
DNA gyrase [9]
  IC50: 4.26 µM
Streptococcus pneumoniae [2]
  MIC: 0.063 µg/mL (≈ 0.168 µM)
Staphylococcus aureus [3]
  MIC: 0.031 µg/mL (≈ 0.0826 µM)
DNA gyrase [10]
  IC50: 17 µM
Escherichia coli
  MIC: 0.031 µg/mL (≈ 0.0826 µM)
Streptococcus pneumoniae [4]
  MIC: 0.125 µg/mL (≈ 0.333 µM)

## CC[C@@H]1CCN(c2c(F)cc3c(=O)c(C(=O)O)cn(C4CC4)c3c2F)C[C@H]1N
Pseudomonas aeruginosa
  MIC: 0.75 µg/mL (≈ 1.92 µM)
Staphylococcus aureus [1]
  MIC: 0.188 µg/mL (≈ 0.48 µM)
DNA gyrase [9]
  IC50: 0.511 µM
Streptococcus pneumoniae [2]
  MIC: 0.012 µg/mL (≈ 0.0307 µM)
Staphylococcus aureus [3]
  MIC: 0.006 µg/mL (≈ 0.0153 µM)
DNA gyrase [10]
  IC50: 32.7 µM
Escherichia coli
  MIC: 0.006 µg/mL (≈ 0.0153 µM)
Streptococcus pneumoniae [4]
  MIC: 0.023 µg/mL (≈ 0.0588 µM)

## CC[C@@H]1CCN(c2nc3c(cc2F)c(=O)c(C(=O)O)cn3C2CC2)C[C@H]1N
Pseudomonas aeruginosa
  MIC: 4 µg/mL (≈ 10.7 µM)
Staphylococcus aureus [1]
  MIC: > 4 µg/mL
DNA gyrase [9]
  IC50: 68.4 µM
Streptococcus pneumoniae [2]
  MIC: 2 µg/mL (≈ 5.34 µM)
Staphylococcus aureus [3]
  MIC: 0.25 µg/mL (≈ 0.668 µM)
DNA gyrase [10]
  IC50: > 273 µM
Escherichia coli
  MIC: 0.03 µg/mL (≈ 0.0801 µM)
Streptococcus pneumoniae [4]
  MIC: 4 µg/mL (≈ 10.7 µM)

## CC[C@@H]1CCN(c2c(F)cc3c(=O)c(C(=O)O)cn(C4CC4)c3c2OC)C[C@H]1N
Pseudomonas aeruginosa
  MIC: 1 µg/mL (≈ 2.48 µM)
Staphylococcus aureus [1]
  MIC: 0.125 µg/mL (≈ 0.31 µM)
DNA gyrase [9]
  IC50: 7.93 µM
Streptococcus pneumoniae [2]
  MIC: 0.008 µg/mL (≈ 0.0198 µM)
Staphylococcus aureus [3]
  MIC: 0.008 µg/mL (≈ 0.0198 µM)
DNA gyrase [10]
  IC50: 15.9 µM
Escherichia coli
  MIC: 0.016 µg/mL (≈ 0.0397 µM)
Streptococcus pneumoniae [4]
  MIC: 0.031 µg/mL (≈ 0.0768 µM)

## O=C(O)c1cn(C2CC2)c2cc(N3CCNCC3)c(F)cc2c1=O [CIPROFLOXACIN]
Pseudomonas aeruginosa
  MIC: 0.12 µg/mL (≈ 0.362 µM)
Staphylococcus aureus [3]
  MIC: 0.25 µg/mL (≈ 0.754 µM)
Streptococcus pneumoniae [4]
  MIC: 0.25 µg/mL (≈ 0.754 µM)

## COc1c(N2CC[C@@H]([C@@H](C)N)C2)c(F)cc2c(=O)c(C(=O)O)cn(C3CC3)c12
Pseudomonas aeruginosa
  MIC: 0.25 µg/mL (≈ 0.642 µM)
Staphylococcus aureus [1]
  MIC: 0.016 µg/mL (≈ 0.0411 µM)
Streptococcus pneumoniae [2]
  MIC: 0.008 µg/mL (≈ 0.0205 µM)
Staphylococcus aureus [3]
  MIC: 0.008 µg/mL (≈ 0.0205 µM)
Escherichia coli
  MIC: 0.008 µg/mL (≈ 0.0205 µM)
Streptococcus pneumoniae [4]
  MIC: 0.008 µg/mL (≈ 0.0205 µM)

## N[C@H]1CCCN(c2ccc3c(=O)c(C(=O)O)cn(C4CC4)c3c2Cl)C1
Pseudomonas aeruginosa
  MIC: 0.5 µg/mL (≈ 1.38 µM)
Staphylococcus aureus [1]
  MIC: 1 µg/mL (≈ 2.76 µM)
DNA gyrase [9]
  IC50: 8.84 µM
Streptococcus pneumoniae [2]
  MIC: < 0.008 µg/mL
Staphylococcus aureus [3]
  MIC: 0.016 µg/mL (≈ 0.0442 µM)
DNA gyrase [10]
  IC50: 35.4 µM
Escherichia coli
  MIC: 0.03 µg/mL (≈ 0.0829 µM)
Streptococcus pneumoniae [4]
  MIC: 0.12 µg/mL (≈ 0.332 µM)

## COc1c(N2CCNC(C)C2)c(F)cc2c(=O)c(C(=O)O)cn(C3CC3)c12 (stereo not given) [GATIFLOXACIN]
Pseudomonas aeruginosa
  MIC: 0.12 µg/mL (≈ 0.32 µM)
Staphylococcus aureus [1]
  MIC: 4 µg/mL (≈ 10.7 µM)
Staphylococcus aureus [3]
  MIC: 0.06 µg/mL (≈ 0.16 µM)
Escherichia coli
  MIC: 0.015 µg/mL (≈ 0.04 µM)
Streptococcus pneumoniae [4]
  MIC: 0.12 µg/mL (≈ 0.32 µM)

## NC1CCN(c2c(F)cc3c(=O)c(C(=O)O)cn(C4CC4)c3c2Cl)C1 (stereo not given) [CLINAFLOXACIN]
Pseudomonas aeruginosa
  MIC: 0.06 µg/mL (≈ 0.164 µM)
Staphylococcus aureus [1]
  MIC: 0.5 µg/mL (≈ 1.37 µM)
DNA gyrase [9]
  IC50: 0.547 µM
Streptococcus pneumoniae [2]
  MIC: 0.15 µg/mL (≈ 0.41 µM)
Staphylococcus aureus [3]
  MIC: 0.03 µg/mL (≈ 0.082 µM)
DNA gyrase [10]
  IC50: 2.73 µM
Escherichia coli
  MIC: 0.015 µg/mL (≈ 0.041 µM)
Streptococcus pneumoniae [4]
  MIC: 0.03 µg/mL (≈ 0.082 µM)

## N[C@H]1CCCN(c2nc3c(cc2F)c(=O)c(C(=O)O)cn3C2CC2)C1
Pseudomonas aeruginosa
  MIC: 1 µg/mL (≈ 2.89 µM)
Staphylococcus aureus [1]
  MIC: > 4 µg/mL
DNA gyrase [9]
  IC50: 4.62 µM
Streptococcus pneumoniae [2]
  MIC: 4 µg/mL (≈ 11.5 µM)
Staphylococcus aureus [3]
  MIC: 2 µg/mL (≈ 5.77 µM)
DNA gyrase [10]
  IC50: > 296 µM
Escherichia coli
  MIC: 0.125 µg/mL (≈ 0.361 µM)
Streptococcus pneumoniae [4]
  MIC: 4 µg/mL (≈ 11.5 µM)

## CC[C@@H]1CCN(c2ccc3c(=O)c(C(=O)O)cn(C4CC4)c3c2Cl)C[C@H]1N
Pseudomonas aeruginosa
  MIC: 0.125 µg/mL (≈ 0.321 µM)
Staphylococcus aureus [1]
  MIC: 0.31 µg/mL (≈ 0.795 µM)
DNA gyrase [9]
  IC50: 4.1 µM
Staphylococcus aureus [3]
  MIC: < 0.004 µg/mL
DNA gyrase [10]
  IC50: 8.21 µM
Escherichia coli
  MIC: < 0.004 µg/mL
Streptococcus pneumoniae [4]
  MIC: < 0.004 µg/mL

## O=C(O)c1cn(C2CC2)c2c(Cl)c(N3CCNCC3)ccc2c1=O
Pseudomonas aeruginosa
  MIC: 0.5 µg/mL (≈ 1.44 µM)
Staphylococcus aureus [1]
  MIC: 8 µg/mL (≈ 23 µM)
Staphylococcus aureus [3]
  MIC: 0.25 µg/mL (≈ 0.719 µM)
Streptococcus pneumoniae [4]
  MIC: 4 µg/mL (≈ 11.5 µM)

## COc1c(N2CCC[C@H](N)C2)ccc2c(=O)c(C(=O)O)cn(C3CC3)c12
Pseudomonas aeruginosa
  MIC: 0.5 µg/mL (≈ 1.4 µM)
Staphylococcus aureus [1]
  MIC: 1 µg/mL (≈ 2.8 µM)
DNA gyrase [9]
  IC50: 17.9 µM
Streptococcus pneumoniae [2]
  MIC: < 0.008 µg/mL
Staphylococcus aureus [3]
  MIC: < 0.06 µg/mL
DNA gyrase [10]
  IC50: 35.8 µM
Escherichia coli
  MIC: 0.03 µg/mL (≈ 0.0839 µM)
Streptococcus pneumoniae [4]
  MIC: 0.03 µg/mL (≈ 0.0839 µM)

## CC[C@@H]1CCN(c2ccc3c(=O)c(C(=O)O)cn(C4CC4)c3c2OC)C[C@H]1N
Pseudomonas aeruginosa
  MIC: 1 µg/mL (≈ 2.59 µM)
Staphylococcus aureus [1]
  MIC: 0.25 µg/mL (≈ 0.649 µM)
DNA gyrase [9]
  IC50: 8.3 µM
Streptococcus pneumoniae [2]
  MIC: 0.008 µg/mL (≈ 0.0208 µM)
Staphylococcus aureus [3]
  MIC: < 0.004 µg/mL
DNA gyrase [10]
  IC50: 33.2 µM
Escherichia coli
  MIC: 0.006 µg/mL (≈ 0.0156 µM)
Streptococcus pneumoniae [4]
  MIC: < 0.003 µg/mL
